Reference: patent publication US9376432B2, “Use of VEGFR-3 inhibitors for treating hepatocellular carcinoma” (Sanofi, priority 2012, dated 2016)

Columns and labels:
primary lymphatic cells = experiment: VEGFC- and VEGFD-induced proliferation of primary lymphatic cells; type: cell-based; settings: read-out: IC50, inhibition of VEGFC- and VEGFD-induced proliferation
VEGFR-1 = VEGFR-1 (Homo sapiens, UniProt P17948); settings: same assays as VEGFR-3; disclosed in the '145 application; cited from earlier work
Chain of VEGFR-1 (P17948 27-1338): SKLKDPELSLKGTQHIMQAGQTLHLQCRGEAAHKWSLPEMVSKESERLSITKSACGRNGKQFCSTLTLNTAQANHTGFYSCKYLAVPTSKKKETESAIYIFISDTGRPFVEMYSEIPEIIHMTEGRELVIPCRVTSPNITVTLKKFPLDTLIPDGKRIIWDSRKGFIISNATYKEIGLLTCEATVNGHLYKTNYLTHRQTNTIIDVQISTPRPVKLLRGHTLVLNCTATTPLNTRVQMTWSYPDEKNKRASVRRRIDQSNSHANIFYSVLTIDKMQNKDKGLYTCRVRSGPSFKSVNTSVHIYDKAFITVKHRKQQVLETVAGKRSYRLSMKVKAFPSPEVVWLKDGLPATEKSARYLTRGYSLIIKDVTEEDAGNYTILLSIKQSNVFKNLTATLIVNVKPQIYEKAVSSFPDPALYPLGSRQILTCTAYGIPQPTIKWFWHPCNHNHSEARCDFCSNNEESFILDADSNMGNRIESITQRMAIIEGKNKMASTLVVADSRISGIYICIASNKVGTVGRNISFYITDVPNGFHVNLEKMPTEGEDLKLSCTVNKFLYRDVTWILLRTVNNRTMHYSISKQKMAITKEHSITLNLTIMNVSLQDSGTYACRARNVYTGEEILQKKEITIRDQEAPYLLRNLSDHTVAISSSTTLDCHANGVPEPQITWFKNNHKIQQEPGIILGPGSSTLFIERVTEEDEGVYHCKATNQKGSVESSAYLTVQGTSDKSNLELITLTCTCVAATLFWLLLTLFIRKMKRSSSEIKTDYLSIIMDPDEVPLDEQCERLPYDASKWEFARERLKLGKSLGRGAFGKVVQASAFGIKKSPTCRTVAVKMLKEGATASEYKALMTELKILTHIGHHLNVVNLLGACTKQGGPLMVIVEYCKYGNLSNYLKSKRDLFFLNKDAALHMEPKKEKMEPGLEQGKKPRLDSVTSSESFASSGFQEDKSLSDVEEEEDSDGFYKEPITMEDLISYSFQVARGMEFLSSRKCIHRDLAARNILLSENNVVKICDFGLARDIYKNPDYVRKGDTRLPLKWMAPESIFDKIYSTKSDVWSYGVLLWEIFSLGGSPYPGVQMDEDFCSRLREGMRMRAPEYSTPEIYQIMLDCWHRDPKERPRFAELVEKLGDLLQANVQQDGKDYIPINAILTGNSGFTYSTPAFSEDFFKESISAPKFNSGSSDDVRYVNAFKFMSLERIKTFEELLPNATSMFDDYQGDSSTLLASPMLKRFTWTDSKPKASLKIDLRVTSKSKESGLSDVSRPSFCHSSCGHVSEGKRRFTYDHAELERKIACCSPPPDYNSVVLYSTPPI

VEGFR-3 = VEGFR-3 (Homo sapiens, UniProt P35916); settings: disclosed in the '145 application; read-out: IC50, inhibition of recombinant VEGFR-3 TK activity and autophosphorylation in HEK cells; cited from earlier work
Chain of VEGFR-3 (P35916 25-1363): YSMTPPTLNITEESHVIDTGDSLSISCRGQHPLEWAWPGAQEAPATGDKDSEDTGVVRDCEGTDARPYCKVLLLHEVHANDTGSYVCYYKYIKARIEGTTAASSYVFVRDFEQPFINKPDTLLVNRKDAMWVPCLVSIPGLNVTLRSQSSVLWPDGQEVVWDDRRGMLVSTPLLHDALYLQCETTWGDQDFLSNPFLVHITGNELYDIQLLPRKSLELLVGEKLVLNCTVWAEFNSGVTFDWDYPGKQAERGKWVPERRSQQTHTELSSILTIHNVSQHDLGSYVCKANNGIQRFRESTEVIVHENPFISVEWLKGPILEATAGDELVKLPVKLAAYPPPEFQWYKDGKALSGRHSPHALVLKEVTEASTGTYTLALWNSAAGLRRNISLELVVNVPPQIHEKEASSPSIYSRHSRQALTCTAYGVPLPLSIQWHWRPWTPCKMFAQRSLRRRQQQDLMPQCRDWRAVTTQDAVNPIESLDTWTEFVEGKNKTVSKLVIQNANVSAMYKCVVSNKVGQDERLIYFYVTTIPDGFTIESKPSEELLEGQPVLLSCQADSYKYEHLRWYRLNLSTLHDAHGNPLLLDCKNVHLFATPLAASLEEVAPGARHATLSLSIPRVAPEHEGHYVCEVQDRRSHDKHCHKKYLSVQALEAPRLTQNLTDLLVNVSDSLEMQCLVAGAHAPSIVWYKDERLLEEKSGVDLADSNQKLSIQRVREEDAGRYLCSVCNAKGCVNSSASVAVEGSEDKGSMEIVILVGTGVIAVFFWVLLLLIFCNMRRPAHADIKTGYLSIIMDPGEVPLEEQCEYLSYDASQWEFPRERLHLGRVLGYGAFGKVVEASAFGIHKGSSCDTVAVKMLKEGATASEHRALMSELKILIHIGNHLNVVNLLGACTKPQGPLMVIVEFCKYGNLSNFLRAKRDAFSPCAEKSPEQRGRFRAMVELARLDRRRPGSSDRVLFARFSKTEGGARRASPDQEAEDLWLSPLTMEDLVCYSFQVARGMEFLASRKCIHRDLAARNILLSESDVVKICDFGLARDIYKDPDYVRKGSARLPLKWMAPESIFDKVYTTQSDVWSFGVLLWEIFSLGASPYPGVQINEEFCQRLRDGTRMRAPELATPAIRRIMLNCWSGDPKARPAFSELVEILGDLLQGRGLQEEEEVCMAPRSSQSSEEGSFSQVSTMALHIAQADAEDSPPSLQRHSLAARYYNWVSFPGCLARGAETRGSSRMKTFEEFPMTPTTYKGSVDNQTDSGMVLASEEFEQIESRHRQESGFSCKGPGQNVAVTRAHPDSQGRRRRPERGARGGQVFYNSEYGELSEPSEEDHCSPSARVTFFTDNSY

[1] = system: HepG2 cell line orthotopic xenograft; experiment: HepG2 cell line orthotopic xenograft model (murine hepatocarcinoma xenograft); type: in vivo, SCID mice; settings: 100 mg/kg once a day
Method: The in vivo anti-tumor efficacy of the compound of Example 1 in HepG2 cell line orthotopic xenograft model was evaluated. The HepG2 cells were injected into liver of SCID mice (obtained from ATCC) and mice were randomized into 2 groups 14 days post cell injection: a control group treated with vehicle and the compound of Example 1-treated group. Treatment was performed once a day at 100 mg/kg in methyl cellulose tween as vehicle.
The tumor size was measured by weighting the left lobe with the tumor at day 28. […] Normal liver lobe was also measured and deduced from the lobe of tumor bearing mice. […] (See FIG. 1).

[2] = system: DEN-induced hepatocarcinoma; experiment: DEN chemical-induced hepatocarcinoma in mice; type: in vivo, male C3H mice
Method: DEN (N-diethynitrosamine)-induced mouse model has been validated as a representative model for human HCC Wu et al. J. Cancer Res. Clin. Oncol. (2009) 135. 969-981; Chuang et al. Carcinogenesis (2000) 21; 331-335).
Tumor initiation was achieved by a single intra peritoneal injection of 10 mg/kg of N-diethylnitrosamine (DEN) in male C3H mice (Charles river laboratories France) at the age of 5 weeks.
Mice developed tumors in the liver from the 7th month post DEN administration but the incidence reached 100% at the 12th month. The compound of Example 1 was daily administrated P.O. (orally) after suspension in methyl cellulose tween, between the 10th and 12th month after DEN administration.
The body weight was evaluated each week during treatment and on the 12th months. Mice were killed by overdose of sodium pentobarbital, and livers were removed and weighted. The number of tumors per liver was counted and the tumor volume was measured with calipers. The tumor volume V was calculated using formula V=0.52×a^2×b, where “a” represents the smallest tumor diameter and “b” the largest tumor diameter.

[3] = system: 85 different kinases and 107 receptors, enzymes and ion channels; experiment: selectivity versus other kinases, receptors, enzymes and ion channels
hepatocellular carcinoma = settings: HCC patients; literature; cited from earlier work
[4] = daily P.O. between 10th and 12th month after DEN, vs vehicle group
[5] = late treatment, 10th to 12th month after DEN, compared to same parameters at the 10th month

Row | Structure (SMILES) | IC50 (primary lymphatic cells) [nM] | IC50 (VEGFR-1) [nM] | IC50 (VEGFR-3) [nM] | decrease of mean weight of the liver lobe bearing the tumor ([1]; from 14 days post cell injection, Day 28 post cell injection, vs vehicle, p=0.001) [%] | reduction of tumor weight (normal liver lobe weight deduced) ([1]; Day 28, normal liver lobe deduced from lobe of tumor bearing mice) [%] | total liver weight ([2]; daily P.O. between 10th and 12th month after DEN) | reduction of number of tumors/liver [2, 4] [%] | reduction of total tumor volume [2, 4] [%] | formation of new loci compared to the 10th month [2, 5] | tumor development compared to the 10th month [2, 5] | selectivity for VEGFR-3 compared to other tested kinases, receptors, enzymes and ion channels [3] | OS (overall survival) gain over placebo (hepatocellular carcinoma)
1 | CCn1c(N)c(-c2ncc[nH]2)c(=O)c2ccc(C#C[C@@](C)(O)COC)nc21 [Example 1, 2-Amino-1-ethyl-7-((3R)-3-hydroxy-4-methoxy-3-methyl-but-1-ynyl)-3-(1H-imidazol-2-yl)-1H-[1,8]-naphthyridin-4-one] | 10 to 15 | > 1000 | ~25 | 34 | 62 | reduced and almost normalized | 50 | 85 | prevented the formation of new loci | completely blocked tumor development | highly selective for VEGFR-3 | –
2 | CNC(=O)c1cc(Oc2ccc(NC(=O)Nc3ccc(Cl)c(C(F)(F)F)c3)cc2)ccn1 [Sorafenib] | – | – | – | – | – | – | – | – | – | – | – | 2-3 months
3 | CCn1c(N)c(-c2ncc[nH]2)c(=O)c2ccc(C#C[C@@](C)(O)CO)nc21 [Example 2, 2-Amino-7-((3R)3,4-dihydroxy-3-methyl-but-1-ynyl)-1-ethyl-3-(1H-imidazol-2-yl)-1,8-naphthyridin-4(1H)-one] | – | – | ~47 | – | – | – | – | – | – | – | – | –
